{"source": "patent US20060239958A1", "about": "“Biodegradable and pressure-sensitive material for medical use” (priority 2003, published 2006)", "test_system": "L929 cells", "assay": "Cytotoxicity test using L929 cells", "assay_type": "cell-based", "experimental": "FIG. 1 is a graph showing the result of a cytotoxicity test on three compounds related to the synthesis of a citric acid derivative (CAD).\nA cytotoxicity test was carried out in the following manner. As one example of the low-molecular-weight derivative serving as the hardening component, a biological low-molecular-weight derivative (CAD) was synthesized by modifying three carboxyl groups of a citric acid with N-hydroxysuccinimide (HOSu), and a cytotoxicity test was performed using L929 cells and the synthesized CAD. The number of cells in a sample added with no CAD was defined as 100%.", "data": [{"smiles": "O=C(CC(O)(CC(=O)ON1C(=O)CCC1=O)C(=O)ON1C(=O)CCC1=O)ON1C(=O)CCC1=O", "note": "[CAD]", "values": [{"measurement": "cytotoxicity (number of cells; sample added with no CAD defined as 100%)", "result": "extremely low toxicity"}]}, {"smiles": "O=C1CCC(=O)N1O", "note": "[HOSu, N-hydroxysuccinimide]", "values": [{"measurement": "cytotoxicity (number of cells; sample added with no CAD defined as 100%)", "result": "extremely low toxicity"}]}, {"smiles": "O=C(O)CC(O)(CC(=O)O)C(=O)O", "note": "[citric acid]", "values": [{"measurement": "cytotoxicity (number of cells; sample added with no CAD defined as 100%)", "result": "extremely low toxicity"}]}]}
